{"source": "patent US20140243332A1", "about": "“METHODS OF TREATING CANCERS CHARACTERIZED BY ABERRENT ROS1 ACTIVITY” (Oregon Health & Science University, priority 2013, published 2014)", "key": {"[1]": {"settings": "established, reported in the literature; read-out: steady state maximum plasma concentration Cmax; cited from earlier work"}, "NIH3T3 SLC-ROS cells": {"system": "NIH3T3 SLC-ROS cells", "assay": "Soft agar colony formation, NIH3T3 SLC-ROS", "assay_type": "cell-based", "settings": "at lower doses than crizotinib", "from_the_text": "The bottom panels are bar graphs indicating the number of colonies formed from the plates depicted in the top panels. The values indicate average colony number±SEM from 4 independent wells."}, "FIG-ROS [2]": {"molecular_target": "T1, FIG-ROS (Homo sapiens, UniProt P08922)", "T1 sequence (P08922 with tags, fused parts or gaps)": "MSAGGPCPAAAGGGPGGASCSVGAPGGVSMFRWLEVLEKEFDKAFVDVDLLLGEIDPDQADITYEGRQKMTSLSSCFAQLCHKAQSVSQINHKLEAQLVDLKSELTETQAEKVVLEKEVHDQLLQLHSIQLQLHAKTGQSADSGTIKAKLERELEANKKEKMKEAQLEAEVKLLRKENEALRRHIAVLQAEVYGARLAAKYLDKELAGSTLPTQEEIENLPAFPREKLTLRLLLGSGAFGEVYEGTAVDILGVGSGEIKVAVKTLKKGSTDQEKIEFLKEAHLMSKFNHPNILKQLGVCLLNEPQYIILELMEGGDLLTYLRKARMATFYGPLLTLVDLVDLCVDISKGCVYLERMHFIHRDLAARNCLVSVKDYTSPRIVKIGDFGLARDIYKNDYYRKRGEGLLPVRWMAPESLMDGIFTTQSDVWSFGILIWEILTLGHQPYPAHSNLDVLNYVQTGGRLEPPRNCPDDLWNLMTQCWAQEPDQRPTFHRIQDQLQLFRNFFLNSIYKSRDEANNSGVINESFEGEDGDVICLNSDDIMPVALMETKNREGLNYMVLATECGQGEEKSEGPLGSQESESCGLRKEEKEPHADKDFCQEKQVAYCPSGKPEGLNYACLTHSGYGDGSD", "assay": "Immunoblot of Ba/F3 FIG-ROS lysates", "assay_type": "cell-based", "set-up": "expressed in transfected cells; host or cells: Ba/F3 (A14), retroviral pMSCV-IRES-GFP; the other entry of the earlier key: GOPC (Q9HD26, Golgi-associated PDZ and coiled-coil motif-containing protein)", "settings": "Ba/F3 FIG-ROS cells, increasing amounts, immunoblot FIG. 1C", "method": "FIG. 1C is an image of an immunoblot of lysates of Ba/F3 FIG-ROS and Ba/F3 SLC-ROS and the indicated downstream effectors after treatment with the indicated compounds. Images shown are representative of three independent experiments.\n(§1) Ba/F3 FIG-ROS, Ba/F3 SLC-ROS, HCC78 and mCC cell lines were treated with the indicated concentration of inhibitors for 1-2 hours. […] The protein content of the cell lysates was determined and lysates were either used for immunoprecipitation where indicated or extracted with SDS Sample buffer for 15 minutes at 80° C. Proteins were transferred to Immobilon-FL membranes and immunoblotted with antibodies specific for phospho-ROS1 (Cell Signaling Technology (CST) #3078), total ROS1 (CST #3266), phopsho-Shp2 (CST #3751), total Shpt (CST #3752), phospho-Stat3 (CST #9145), total Stat3 (CST #4904), phospho-Erk1/2 (CST #9101), total Erk2 (Santa Cruz #SC-1647), phospho-S6 (CST #4858), total S6 (CST #2216), phospho-Src (CST #2105), total Src (CST #2110), α-tubulin (Sigma T6199), or β-actin (Sigma A1978) as indicated. Images of the blots were generated by the LI-COR Odyssey® imaging system, following the manufacturer's protocol for immunoblot detection with use of IR-dye conjugated secondary antibodies."}, "Ba/F3 SLC-ROS cells [3]": {"molecular_target": "T2, Ba/F3 SLC-ROS cells (Homo sapiens, UniProt P08922)", "T2 construct": "SLC-ROS-S (SLC-ROS) was cloned from cDNA made from HCC78 cells; fused on or other part: GFP is co-expressed from an IRES in pMIG and is not fused; O95436 (Sodium-dependent phosphate transport protein 2B)", "T2 sequence (P08922 whole entry, change not shown, the tested form may be a part)": "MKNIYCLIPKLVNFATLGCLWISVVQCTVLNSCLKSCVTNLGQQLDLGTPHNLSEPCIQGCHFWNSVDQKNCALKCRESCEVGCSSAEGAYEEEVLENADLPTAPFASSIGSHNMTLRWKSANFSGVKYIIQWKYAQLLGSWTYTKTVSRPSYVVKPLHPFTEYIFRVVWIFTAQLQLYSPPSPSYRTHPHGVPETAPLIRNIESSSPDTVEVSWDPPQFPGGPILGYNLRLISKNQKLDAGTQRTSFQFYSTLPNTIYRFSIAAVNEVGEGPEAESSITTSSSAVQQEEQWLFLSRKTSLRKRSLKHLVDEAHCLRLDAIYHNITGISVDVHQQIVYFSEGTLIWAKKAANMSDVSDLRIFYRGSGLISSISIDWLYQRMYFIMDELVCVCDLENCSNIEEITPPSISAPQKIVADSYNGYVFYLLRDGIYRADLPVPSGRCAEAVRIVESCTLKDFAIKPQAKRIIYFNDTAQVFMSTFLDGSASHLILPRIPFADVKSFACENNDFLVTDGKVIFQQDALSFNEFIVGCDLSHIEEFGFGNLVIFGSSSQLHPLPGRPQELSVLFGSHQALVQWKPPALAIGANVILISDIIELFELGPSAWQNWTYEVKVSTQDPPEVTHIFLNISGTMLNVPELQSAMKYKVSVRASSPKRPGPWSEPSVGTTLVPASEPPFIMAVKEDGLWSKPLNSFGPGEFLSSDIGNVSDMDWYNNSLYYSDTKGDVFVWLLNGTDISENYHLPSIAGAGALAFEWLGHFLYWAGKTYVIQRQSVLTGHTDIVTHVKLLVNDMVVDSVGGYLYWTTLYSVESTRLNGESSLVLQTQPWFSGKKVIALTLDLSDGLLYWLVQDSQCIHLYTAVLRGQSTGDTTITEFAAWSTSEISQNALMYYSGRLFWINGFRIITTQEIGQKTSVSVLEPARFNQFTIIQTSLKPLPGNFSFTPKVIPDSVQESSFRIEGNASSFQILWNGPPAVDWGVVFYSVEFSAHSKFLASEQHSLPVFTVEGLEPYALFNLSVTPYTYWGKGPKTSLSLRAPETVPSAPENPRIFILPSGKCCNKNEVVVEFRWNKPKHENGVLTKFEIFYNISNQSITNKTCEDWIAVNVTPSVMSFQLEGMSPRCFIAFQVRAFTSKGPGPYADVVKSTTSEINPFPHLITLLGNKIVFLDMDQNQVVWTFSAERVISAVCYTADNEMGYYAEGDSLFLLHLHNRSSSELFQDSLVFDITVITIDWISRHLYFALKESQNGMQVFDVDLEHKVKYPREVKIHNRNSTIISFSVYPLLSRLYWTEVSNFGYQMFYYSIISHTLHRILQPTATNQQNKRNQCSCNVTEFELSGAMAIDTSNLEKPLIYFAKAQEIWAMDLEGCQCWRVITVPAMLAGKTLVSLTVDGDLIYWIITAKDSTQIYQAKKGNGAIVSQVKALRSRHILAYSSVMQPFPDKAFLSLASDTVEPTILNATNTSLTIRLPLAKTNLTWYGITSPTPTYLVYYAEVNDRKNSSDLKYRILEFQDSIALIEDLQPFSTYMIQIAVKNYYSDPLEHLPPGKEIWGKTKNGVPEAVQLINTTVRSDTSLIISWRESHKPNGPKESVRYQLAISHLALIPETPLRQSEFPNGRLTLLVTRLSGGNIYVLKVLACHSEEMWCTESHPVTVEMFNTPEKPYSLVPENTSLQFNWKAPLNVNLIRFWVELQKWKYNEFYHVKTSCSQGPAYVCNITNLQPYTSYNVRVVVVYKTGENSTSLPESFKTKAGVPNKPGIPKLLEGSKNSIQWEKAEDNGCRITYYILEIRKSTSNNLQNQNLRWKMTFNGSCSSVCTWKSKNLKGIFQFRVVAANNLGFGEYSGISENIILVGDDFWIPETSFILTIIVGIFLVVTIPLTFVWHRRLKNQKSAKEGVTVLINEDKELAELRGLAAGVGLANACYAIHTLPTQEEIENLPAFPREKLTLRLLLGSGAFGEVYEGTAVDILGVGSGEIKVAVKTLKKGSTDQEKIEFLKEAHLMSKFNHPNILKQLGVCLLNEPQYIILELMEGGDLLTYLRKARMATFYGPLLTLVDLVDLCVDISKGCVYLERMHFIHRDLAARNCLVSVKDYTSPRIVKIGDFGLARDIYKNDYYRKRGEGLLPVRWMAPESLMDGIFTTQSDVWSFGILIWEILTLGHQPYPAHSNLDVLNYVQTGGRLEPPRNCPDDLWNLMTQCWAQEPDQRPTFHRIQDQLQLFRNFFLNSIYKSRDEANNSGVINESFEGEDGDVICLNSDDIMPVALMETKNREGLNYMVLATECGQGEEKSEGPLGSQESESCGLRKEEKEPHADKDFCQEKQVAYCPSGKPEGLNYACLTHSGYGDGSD", "assay": "Cell viability (MTS) assay, Ba/F3 SLC-ROS", "assay_type": "cell-based", "settings": "72 hours, read-out: IC50 (the source's name)", "method": "The parental Ba/F3 cell line was cultured in RPMI 1640 medium with 10% FBS, L-glutamine, penicillin/streptomycin and 15% WEHI-conditioned media. Ba/F3 cell lines were maintained at densities of 0.5×10^6 to 1.5×10^6 per ml of media. FIG-ROS and SLC-ROS Ba/F3 lines were created by infecting the parental Ba/F3 with retrovirus expressing either human FIG-ROS-S (indicated FIG-ROS herein) or SLC-ROS-S (indicated SLC-ROS herein). Stable transfectant lines were sorted for GFP expression on a FACS Aria® flow cytometer. Cells were counted daily using Guava ViaCount® reagent and Guava Personal Cell Analysis® flow cytometer. […] Early passage NIH3T3 cells were infected with retrovirus expressing either FIG-ROS or SLC-ROS and sorted for GFP expression as described above for Ba/F3 cells. HCC78 cells were cultured in RPMI 1640 medium with 10% FBS, L-glutamine, and penicillin/streptomycin. This media is referred to as RPMI-10% FBS herein.\n[…]. The Ba/F3 parental line was also tested. (O'Dwyer M E and Druker B J, Lancet Oncology 1, 207-211 (2000); Walters D K et al, Cancer Cell 10, 65-75 (2006); and Heukamp L C et al, Science Translational Medicine 4, 141ra191 (2012); […]."}, "Ba/F3 SLC-ROS cells [4]": {"molecular_target": "T2, Ba/F3 SLC-ROS cells", "assay": "Apoptosis induction (Annexin V / 7-AAD), Ba/F3 SLC-ROS", "assay_type": "cell-based", "settings": "15 nM, 48 hours", "method": "(§2) FIG. 5A is a set of three bar graphs depicting the induction of apoptosis in Ba/F3 FIG-ROS, Ba/F3 SLC-ROS and Ba/F3 ALK F1174L cells after 48 hours of treatment with the indicated doses of the indicated compounds. The number of cells that were Annexin V and 7-AAD positive after inhibitor treatment was normalized to number of cells staining positive with these markers with vehicle treatment (basal). A minimum of 2000 cells were counted per condition. Rate of apoptosis is shown as fold over basal. Basal apoptosis in Ba/F3 FIG-ROS, Ba/F3 SLC-ROS and Ba/F3 ALK F1174 cells was 3.6%, 2.8% and 1.2% respectively."}, "[5]": {"system": "FIG-ROS cholangiocarcinoma tumor cells", "assay": "Anchorage-independent colony formation in soft agar, FIG-ROS cholangiocarcinoma cells", "assay_type": "cell-based, murine", "settings": "dose dependent", "from_the_text": "[…]. The values indicate the mean and the error bars indicate the standard error of the mean of 3 independent wells.\n(§3) . The inhibition was dose dependent (FIG. 2B). […]."}, "FIG-ROS [6]": {"molecular_target": "T1, FIG-ROS", "assay": "Immunoblot of FIG-ROS murine cholangiocarcinoma cell lysates", "assay_type": "cell-based", "set-up": "expressed in transfected cells; host or cells: murine cholangiocarcinoma tumour cell lines (lines 3 and 4) derived from transduced mouse hepatoblasts; the other entry of the earlier key: GOPC (Q9HD26, Golgi-associated PDZ and coiled-coil motif-containing protein)", "settings": "100 nM, FIG-ROS murine cholangiocarcinoma cells", "method": "[…]. Images shown are representative of three independent experiments.\nas §1, §3"}, "Ba/F3 FIG-ROS cells": {"molecular_target": "T3, Ba/F3 FIG-ROS cells (Homo sapiens, UniProt P08922)", "T3 construct": "fused on or other part: GFP is co-expressed from an IRES in pMIG and is not fused; Q9HD26 (Golgi-associated PDZ and coiled-coil motif-containing protein)", "T3 sequence (P08922 whole entry, change not shown, the tested form may be a part)": "as above", "assay": "Apoptosis induction (Annexin V / 7-AAD), Ba/F3 FIG-ROS", "assay_type": "cell-based", "settings": "15 nM, 48 hours", "method": "as §2"}}}
{"smiles": "COc1cc2c(Oc3ccc(NC(=O)C4(C(=O)Nc5ccc(F)cc5)CC4)cc3F)ccnc2cc1OCCCN1CCOCC1", "note": "[foretinib, N1′-[3-fluoro-4-[[6-methoxy-7-(3-morpholinopropoxy)-4-quinolyl]oxy]phenyl]-N1-(4-fluorophenyl)cyclopropane-1,1-dicarboxamide]", "values": [{"measurement": "Cmax", "setting": "[1]", "result": 340, "unit": "nM"}, {"measurement": "anchorage-independent colony formation", "setting": "NIH3T3 SLC-ROS cells", "result": "strongly suppressed"}, {"measurement": "autophosphorylation of FIG-ROS and ROS1-driven signaling (phospho-Shp2, phospho-ERK1/2)", "setting": "FIG-ROS [2]", "result": "dose dependent decrease"}, {"measurement": "GI50", "setting": "Ba/F3 SLC-ROS cells [3]", "result": 10, "unit": "nM"}, {"measurement": "apoptosis induction", "setting": "Ba/F3 SLC-ROS cells [4]", "result": "induced apoptosis"}, {"measurement": "anchorage-independent colonies in soft agar", "setting": "[5]", "result": "inhibited"}, {"measurement": "auto-phosphorylation of FIG-ROS and phosphorylation of Shpt and ERK1/2", "setting": "FIG-ROS [6]", "result": "almost completely inhibited"}, {"measurement": "apoptosis induction", "setting": "Ba/F3 FIG-ROS cells", "result": "induced apoptosis"}]}
